{"source": "paper PMC9354638", "about": "“Targeting p21-activated kinase 4 (PAK4) with pyrazolo[3,4-d]pyrimidine derivative SPA7012 attenuates hepatic ischaemia-reperfusion injury in mice” (Journal of Enzyme Inhibition and Medicinal Chemistry, 2022)", "key": {"PAK1": {"molecular_target": "T1, PAK1 (Homo sapiens, UniProt Q13153)", "T1 construct": "purchased Reaction Biology Corporation (Malvern, PA, USA)", "T1 sequence (Q13153 whole entry)": "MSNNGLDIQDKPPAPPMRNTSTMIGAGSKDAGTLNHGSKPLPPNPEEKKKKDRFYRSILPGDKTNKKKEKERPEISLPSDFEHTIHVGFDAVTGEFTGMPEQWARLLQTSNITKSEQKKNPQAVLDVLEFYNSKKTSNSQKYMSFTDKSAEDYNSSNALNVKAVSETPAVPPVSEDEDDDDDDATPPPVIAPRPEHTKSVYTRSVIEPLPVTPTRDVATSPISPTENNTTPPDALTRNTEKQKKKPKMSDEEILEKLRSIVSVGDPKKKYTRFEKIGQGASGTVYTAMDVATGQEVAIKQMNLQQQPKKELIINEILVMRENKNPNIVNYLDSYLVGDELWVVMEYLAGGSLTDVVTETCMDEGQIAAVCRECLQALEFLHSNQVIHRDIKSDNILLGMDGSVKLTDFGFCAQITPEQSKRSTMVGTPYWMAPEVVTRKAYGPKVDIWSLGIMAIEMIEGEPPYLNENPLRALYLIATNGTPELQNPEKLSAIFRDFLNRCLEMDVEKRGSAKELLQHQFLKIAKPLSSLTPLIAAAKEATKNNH", "assay": "HotSpot kinase assay, PAK subtype selectivity", "format": "biochemical", "settings": "relative percentage inhibition at 20 μM with staurosporine", "procedure": "(§1) To examine the enzyme activity, HotSpot kinase assay was performed at Reaction Biology Corporation (Malvern, PA, USA). The kinase and substrate pairs were prepared in reaction buffer: 20 mM HEPES at pH 7.5, 10 mM MgCl2, 1 mM EGTA, 0.02% Brij 35, 0.02 mg/mL BSA, 0.1 mM Na3VO4, 2 mM DTT, and 1% DMSO. Compounds were added into the kinase reaction mixture and incubated for 20 min. Then, ^32 P-ATP was introduced to the mixture to initiate the reaction carried out at 10 μM of ATP concentration. After 2 h at room temperature, the mixture was spotted onto P81 ion exchange paper and kinase activity was then evaluated utilising the filter-binding method. Compounds were tested for single dose enzyme inhibition at a concentration of 20 μM. For the control compound, staurosporine was tested in a 10-dose IC50 mode. To determine the IC50 value, the compounds were tested for 10-doses with 3-fold serial dilution starting at 100 μM.\n(§2) Synthesised compounds were evaluated for their in vitro PAK4 enzyme inhibitory activities. In vitro kinase assays were performed using HotSpot kinase assays for relative enzyme inhibitory activity at a single concentration (20 μM) and IC50 assessment at an ATP concentration of 10 μM (Figure 1(B)). […] For the allosteric pocket binder, cyclohexyl group (SPA7012) was preferable to the smaller dimethyl (SPA7011) or hydroxymethyl group (SPA7013), and the aromatic ring (SPA7014) reduced activity compared to the saturated ring (SPA7012). In vitro enzyme IC50 values appeared in the order of SPA7012, SPA7017, and SPA7016. […] Molecular docking analysis was performed on the human PAK4 catalytic domain structure complexed with GNE-2861 (PDB code: 4O0V). The binding pose of SPA7012 overlapped well with the crystal structure of GNE-2861, with the allosteric binder properly positioned in the specific back pocket. The oxygen atom in the tertiary alcohol of the hydrophobic allosteric binder formed hydrogen bonds with the backbone of Phe459 and the side chain of Glu366 (Figure 1(D)). The amine group and nitrogen atom in the pyrazolo[3,4-d]pyrimidine core scaffold also formed hydrogen bonds with Lue398 at the hinge region. Finally, SPA7012 was decided as a lead compound for further examination with satisfactory potency and subtype selectivity."}, "PAK2": {"molecular_target": "T2, PAK2 (Homo sapiens, UniProt Q13177)", "T2 construct": "purchased Reaction Biology Corporation (Malvern, PA, USA)", "T2 sequence (Q13177 whole entry)": "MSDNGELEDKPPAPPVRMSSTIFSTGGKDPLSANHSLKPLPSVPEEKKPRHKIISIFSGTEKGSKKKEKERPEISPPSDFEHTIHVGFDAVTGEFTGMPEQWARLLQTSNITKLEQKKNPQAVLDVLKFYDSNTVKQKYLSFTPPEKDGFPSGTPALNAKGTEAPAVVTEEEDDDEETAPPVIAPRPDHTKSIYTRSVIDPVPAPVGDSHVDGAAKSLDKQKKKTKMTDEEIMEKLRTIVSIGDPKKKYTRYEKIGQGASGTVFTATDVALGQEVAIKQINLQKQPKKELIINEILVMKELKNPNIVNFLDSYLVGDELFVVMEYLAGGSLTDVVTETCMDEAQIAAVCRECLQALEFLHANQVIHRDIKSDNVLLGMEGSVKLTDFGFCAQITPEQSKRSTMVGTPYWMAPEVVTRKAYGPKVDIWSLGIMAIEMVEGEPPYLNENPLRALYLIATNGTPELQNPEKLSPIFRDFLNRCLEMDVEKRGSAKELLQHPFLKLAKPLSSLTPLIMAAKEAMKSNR", "assay": "HotSpot kinase assay, PAK subtype selectivity", "format": "biochemical", "settings": "relative percentage inhibition at 20 μM with staurosporine", "procedure": "as §1, §2"}, "PAK3": {"molecular_target": "T3, PAK3 (Homo sapiens, UniProt O75914)", "T3 construct": "purchased Reaction Biology Corporation (Malvern, PA, USA)", "T3 sequence (O75914 whole entry)": "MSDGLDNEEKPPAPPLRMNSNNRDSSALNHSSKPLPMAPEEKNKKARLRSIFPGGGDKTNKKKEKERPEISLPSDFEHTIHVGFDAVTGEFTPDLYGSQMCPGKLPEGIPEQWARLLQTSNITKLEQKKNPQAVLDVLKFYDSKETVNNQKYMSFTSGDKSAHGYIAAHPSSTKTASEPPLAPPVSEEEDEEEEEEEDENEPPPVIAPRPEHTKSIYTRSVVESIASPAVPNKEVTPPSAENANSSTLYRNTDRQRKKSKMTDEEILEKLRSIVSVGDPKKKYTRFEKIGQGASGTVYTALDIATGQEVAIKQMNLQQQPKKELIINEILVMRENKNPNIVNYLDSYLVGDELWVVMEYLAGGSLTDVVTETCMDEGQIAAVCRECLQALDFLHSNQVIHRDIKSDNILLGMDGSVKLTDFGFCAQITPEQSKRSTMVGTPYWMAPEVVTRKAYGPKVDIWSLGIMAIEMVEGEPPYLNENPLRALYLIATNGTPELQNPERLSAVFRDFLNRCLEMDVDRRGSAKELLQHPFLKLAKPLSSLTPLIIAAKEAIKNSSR", "assay": "HotSpot kinase assay, PAK subtype selectivity", "format": "biochemical", "settings": "relative percentage inhibition at 20 μM with staurosporine", "procedure": "as §1, §2"}, "PAK5": {"molecular_target": "T4, PAK5 (Homo sapiens, UniProt Q9P286)", "T4 construct": "purchased Reaction Biology Corporation (Malvern, PA, USA)", "T4 sequence (Q9P286 whole entry)": "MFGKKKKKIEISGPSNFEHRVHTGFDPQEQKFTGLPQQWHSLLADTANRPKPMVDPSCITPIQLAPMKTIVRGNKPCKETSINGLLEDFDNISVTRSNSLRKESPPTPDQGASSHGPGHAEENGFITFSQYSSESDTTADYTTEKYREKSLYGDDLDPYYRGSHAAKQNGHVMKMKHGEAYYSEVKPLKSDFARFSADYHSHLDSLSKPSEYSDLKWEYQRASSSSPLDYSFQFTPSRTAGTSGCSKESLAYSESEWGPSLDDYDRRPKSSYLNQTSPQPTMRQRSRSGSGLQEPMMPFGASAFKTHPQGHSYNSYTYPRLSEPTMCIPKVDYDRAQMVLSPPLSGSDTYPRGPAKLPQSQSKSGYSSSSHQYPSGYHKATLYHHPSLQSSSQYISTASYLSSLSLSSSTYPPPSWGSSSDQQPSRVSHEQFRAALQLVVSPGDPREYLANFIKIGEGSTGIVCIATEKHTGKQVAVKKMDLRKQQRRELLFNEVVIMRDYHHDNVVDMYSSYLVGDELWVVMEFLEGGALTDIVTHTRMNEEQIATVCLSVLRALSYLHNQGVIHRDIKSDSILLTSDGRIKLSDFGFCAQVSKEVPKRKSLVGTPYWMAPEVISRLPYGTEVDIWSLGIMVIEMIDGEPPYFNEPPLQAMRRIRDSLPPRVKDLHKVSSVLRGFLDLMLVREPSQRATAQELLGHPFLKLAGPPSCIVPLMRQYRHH", "assay": "HotSpot kinase assay, PAK subtype selectivity", "format": "biochemical", "procedure": "as §1, §2"}, "PAK6": {"molecular_target": "T5, PAK6 (Homo sapiens, UniProt Q9NQU5)", "T5 construct": "purchased Reaction Biology Corporation (Malvern, PA, USA)", "T5 sequence (Q9NQU5 whole entry)": "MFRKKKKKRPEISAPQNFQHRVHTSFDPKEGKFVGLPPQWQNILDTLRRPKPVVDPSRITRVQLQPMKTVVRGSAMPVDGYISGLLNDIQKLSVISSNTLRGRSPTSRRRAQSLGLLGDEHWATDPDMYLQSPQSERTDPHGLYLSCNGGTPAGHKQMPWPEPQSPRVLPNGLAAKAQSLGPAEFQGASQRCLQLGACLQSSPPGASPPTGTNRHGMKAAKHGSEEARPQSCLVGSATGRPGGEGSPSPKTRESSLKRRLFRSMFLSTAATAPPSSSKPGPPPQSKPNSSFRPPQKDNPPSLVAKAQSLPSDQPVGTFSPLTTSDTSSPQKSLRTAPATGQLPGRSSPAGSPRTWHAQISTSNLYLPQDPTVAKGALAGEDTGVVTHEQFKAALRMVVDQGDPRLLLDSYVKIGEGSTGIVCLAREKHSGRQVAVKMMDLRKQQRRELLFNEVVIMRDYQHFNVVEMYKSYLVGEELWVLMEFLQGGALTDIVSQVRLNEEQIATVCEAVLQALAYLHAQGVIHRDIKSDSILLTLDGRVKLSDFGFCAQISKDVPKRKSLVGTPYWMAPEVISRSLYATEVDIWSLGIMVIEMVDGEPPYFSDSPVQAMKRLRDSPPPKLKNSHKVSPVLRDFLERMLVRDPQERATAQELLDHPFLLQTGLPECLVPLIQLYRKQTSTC", "assay": "HotSpot kinase assay, PAK subtype selectivity", "format": "biochemical", "settings": "relative percentage inhibition at 20 μM with staurosporine", "procedure": "as §1, §2"}, "[1]": {"test_system": "PAK4-mediated phosphorylation of Nrf2", "assay": "Co-IP analysis of PAK4-mediated Nrf2 phosphorylation in HEK293T cells", "format": "cell-based, human", "settings": "HEK293T cells overexpressing Nrf2 and PAK4, 24 h transfection", "procedure": "(§3) The human embryonic kidney cell line HEK293T was obtained from the American Type Culture Collection (Manassas, VA, USA). For the Nrf2 reporter gene assay, 1 μg of a plasmid containing a promoter with an ARE driving luciferase expression was used. Exogenous proteins were expressed by transfecting HEK293T cells with 1 μg of Nrf2 and PAK4 with Lipofectamine 3000 (Invitrogen, Carlsbad, CA, USA). Luciferase activity was measured using a Dual-Luciferase Reporter Assay (Promega, Madison, WI, USA) by Lumat LB 9507 (Berthold, Bad Wildbad, Germany).\nNuclear and cytoplasmic fractions were prepared using the NE-PER Nuclear and Cytoplasmic Extraction kit (Thermo Fisher Scientific, Waltham, MA, USA). Tissue homogenates or cell lysates (15 μg) were separated by 6–14% SDS-PAGE and transferred to PVDF membranes. […] Immunoreactive bands were detected with a Las-4000 imager (GE Healthcare Life Science, Pittsburgh, PA, USA)."}, "[2]": {"test_system": "Nrf2 transcriptional activity (ARE)", "assay": "Nrf2 reporter gene assay (ARE luciferase) in HEK293T cells", "format": "cell-based, human", "settings": "24 h transfection", "procedure": "as §3"}}}
{"smiles": "Cc1nn(-c2cccc(C#CC3(O)CCCCC3)c2)c2ncnc(N)c12", "note": "[Compound 14b, 3-(4-Amino-3-methylpyrazolo[3,4-d]pyrimidin-1-yl)phenylethynylcyclohexan-1-ol]", "values": [{"measurement": "PAK1 % inhibitory activity", "setting": "PAK1", "value": 16, "unit": "%"}, {"measurement": "PAK2 % inhibitory activity", "setting": "PAK2", "value": 36, "unit": "%"}, {"measurement": "PAK3 % inhibitory activity", "setting": "PAK3", "value": 5, "unit": "%"}, {"measurement": "IC50", "setting": "PAK5; HotSpot kinase assay", "value": "> 100", "unit": "µM"}, {"measurement": "PAK5 % inhibitory activity", "setting": "PAK5; relative percentage inhibition at 20 μM with staurosporine", "value": 52, "unit": "%"}, {"measurement": "PAK6 % inhibitory activity", "setting": "PAK6", "value": 36, "unit": "%"}, {"measurement": "PAK4-mediated phosphorylation of Nrf2 at threonine residue", "setting": "[1]", "value": "effectively inhibited"}, {"measurement": "Nrf2 transcriptional activity (ARE luciferase activity)", "setting": "[2]", "value": "increased"}]}
